Reference: publication PMC7217877, “N-AS-triggered SPMs are direct regulators of microglia in a model of Alzheimer’s disease” (Nature Communications, 2020)
Several values for one entry are separate records, joined by “and”; a condition that tells them apart may be missing. Equal entries are not always repeated.

Test system: immortalized human microglia
Test: ac-S565 COX2 in human microglia (western blot, immunofluorescence, Supplementary Fig 6b,c)
Format: cell-based
Set-up: ac-S565 COX2 (western blot): scale not given here
Conditions: for ac-S565 COX2 (western blot): sFig 6b
Method: To confirm the generation and roles of N-AS in neurons, cells from E18 C57BL/6 mice were prepared as previously described. Cortices were dissected and then dissociated followed by incubation in papain (Worthington) at 37 °C for 15 min. Neurons were plated on poly-L-lysine-coated coverslips with neuronal culture medium, serum-free Neurobasal medium (Gibco) containing 2% B27 supplements (Gibco), 1 mM Glutamax supplement (Gibco), and 100 U ml^−1 streptomycin/ 100 U ml^−1 penicillin (Gibco) at 37 °C in a humidified atmosphere of 5% CO2. Aβ 1–42 (10 μM, 24 h, Invitrogen, 03112) was exposed to neurons and the cells were analyzed for the generation and roles of N-AS. Primary astrocyte cultures were prepared from C57BL/6 mice as described previously. In brief, after removal of the meninges, postnatal day 7 (P7) mouse brain tissues were minced and incubated in a rocking water bath at 37 °C for 30 min in the presence of 0.25% trypsin-EDTA (Sigma-Aldrich). Enzyme-digested dissociated cells were triturated with astrocyte-specific medium (DMEM/F12 containing 10% FBS and 1% penicillin-streptomycin) and centrifuged at 155×g for 8 min. The pellet was resuspended in astrocyte-specific medium and passed through a 40-μm cell strainer. The filtrate was allowed pre-adherence for 30 min to remove any contamination from fibroblasts before being seeded in dishes and the addition of astrocyte-specific medium. To split the cells, Ara-C was added to the dishes and they were then placed in a heated shaker for 6–7 h. The medium was removed from the dishes, and trypsin-EDTA was added to the dish and incubated at 37 °C for 5–10 min. After centrifugation at 155×g for 8 min, the supernatant was removed, and the astrocytes were maintained in culture by feeding […] with astrocyte-specific medium. Primary microglia cultures were prepared from C57BL/6 mice as described previously. In brief, the cortices of 2-months-old mice were minced in Hibernate A (Gibco)/B27 supplements (Gibco) medium and dissociated using papain (Worthington) solution. After tissue trituration, cells were separated by Optiprep (Sigma-Aldrich) density gradient centrifugation. Microglia were plated with microglia-specific medium (DMEM/F12 containing 10% FBS and 1% penicillin-streptomycin). The immortalized human microglia (Applied Biologics Materials, T0251) were cultured in PriGrow III (Applied Biologics Materials, TM003) (supplemented with 10% FBS and 1% penicillin-streptomycin) at 37 °C in a humidified atmosphere of 5% CO2. […] The human microglia treated with Aβ 1–42 and/or zileuton was incubated with N-AS (2.5 μM, 2 h, Sigma-Aldrich, 01912), and were analyzed for the generation and roles of N-AS.
Thioflavin S (Sigma-Aldrich) staining was carried out according to previously described procedures. We used 6E10 (mouse, 1:100, Signet, SIG39300), anti-20G10 (mouse, 1:1000, provided by D. R. Howlett, GlaxoSmithKline, Harlow, Essex, UK) for Aβ42, anti-G30 (rabbit, 1:1000, provided by D. R. Howlett) for Aβ40, SMA (mouse, 1:400, Sigma-Aldrich, A2547), AT8 (mouse, 1:500, Thermo Fisher Scientific, MN1020), Caspase-3 (mouse, 1:200, Novus Biologicals, NB100-56708), ac-S565 (rabbit, 1:100), COX2 (mouse, 1:250, Thermo Fisher Scientific, 35-8200), Iba1 (rabbit, 1:500, Wako, 019-19941 and goat, Abcam, ab5076), NeuN (mouse, 1:500, Millipore, MAB177), GFAP (rabbit, 1:500, Dako, N1506 and chicken, 1:500, Abcam, ab4674), and Lamp1 (mouse, 1:200, Abcam, ab24170). The sections were analyzed with a laser-scanning confocal microscope (FV3000; Olympus) or with a BX51 microscope (Olympus). MetaMorph software (Molecular Devices) was used to quantification. Three-dimensional reconstruction of microglia was recorded and analyzed using IMARIS software (Bitplane)[11]. […]

| Compound | ac-S565 COX2 (western blot) (human microglia, Ab 50mM +) | S565 acetylation of COX2, in words (Aβ-affected human microglia + N-AS) | ac-S565 COX2 (immunofluorescence) (human microglia, Ab 50mM +, sFig 6c) | ac-S565 COX2 (western blot) (human microglia, Ab 50mM -) |
| --- | --- | --- | --- | --- |
| CC(=O)SCCNC(=O)CCNC(=O)[C@H](O)C(C)(C)COP(=O)(O)OP(=O)(O)OC[C@H]1O[C@@H](n2cnc3c(N)ncnc32)[C@H](O)[C@@H]1OP(=O)(O)O [Acetyl-CoA, acetyl-CoA] | 1.441 and 1.037 and 1.136 and 1.4813 and 1.401 and 1.309 |  |  |  |
| CCCCCCCCCCCCC/C=C/[C@@H](O)[C@H](CO)NC(C)=O [N-AS, N-((2S,3R,E)-1,3-Dihydroxyoctadec-4-en-2-yl)acetamide] | 1.839 and 1.211 and 1.367 and 1.737 and 1.941 and 1.552 | restored | 2.003 and 2.188 and 1.708 and 1.496 and 1.357 and 1.768 | 1.105 and 1.597 and 1.621 and 1.1016 and 1.489 and 0.9364 |
